# Assay results published in ChEMBL document CHEMBL3885881, “DrugMatrix”.
# Species on record: Rattus norvegicus
# Experiment: DrugMatrix - Regimen: Daily Repeat
# Type: toxicity, organism-based, Sprague-Dawley
# Set-up: regimen Daily Repeat, gender Male, age 6-8 weeks
# Details: in vivo, iv, vehicle 100 % SALINE; for ABSOLUTE BASOPHIL / ABSOLUTE EOSINOPHIL / ABSOLUTE LYMPHOCYTE / ABSOLUTE MONOCYTE / ABSOLUTE SEGMENTED NEUTROPHIL / BASOPHIL / EOSINOPHIL / ERYTHROCYTE COUNT / HEMATOCRIT / HEMOGLOBIN / LEUKOCYTE COUNT / LYMPHOCYTE / MEAN CORPUSCULAR HEMOGLOBIN / MEAN CORPUSCULAR HEMOGLOBIN CONCENTRATION / MEAN CORPUSCULAR VOLUME / MONOCYTE / NEUTROPHIL / NUCLEATED RED BLOOD CELLS / PLATELET COUNT: tissue Blood; for ALANINE AMINOTRANSFERASE / ALBUMIN / ALKALINE PHOSPHATASE / ASPARTATE AMINOTRANSFERASE / BLOOD UREA NITROGEN / CARBON DIOXIDE / CHLORIDE / CHOLESTEROL / CREATINE PHOSPHOKINASE / CREATININE / GLUCOSE / LACTATE DEHYDROGENASE / LIPASE / PHOSPHORUS / POTASSIUM / SODIUM / TOTAL BILIRUBIN / TOTAL PROTEIN / URIC ACID: tissue Plasma
# [1] = 200 mg/kg, 72 h, dose level Low, time 3 day
# [2] = 200 mg/kg, 120 h, dose level Low, time 5 day
# [3] = 671 mg/kg, 72 h, dose level High, time 3 day
# [4] = 671 mg/kg, 120 h, dose level High, time 5 day
structure (smiles),measurement,setting,value
CC1(C)[C@H](C(=O)O)N2C(=O)C[C@H]2S1(=O)=O [SULBACTAM],ABSOLUTE BASOPHIL,[1],0 CELLS/uL
same,ABSOLUTE EOSINOPHIL,[1],43 CELLS/uL
same,ABSOLUTE LYMPHOCYTE,[1],14561.67 CELLS/uL
same,ABSOLUTE MONOCYTE,[1],271 CELLS/uL
same,ABSOLUTE SEGMENTED NEUTROPHIL,[1],824.33 CELLS/uL
same,BASOPHIL,[1],0%
same,EOSINOPHIL,[1],0.33%
same,ERYTHROCYTE COUNT,[1],5.6 x10E6/uL
same,HEMATOCRIT,[1],36.53%
same,HEMOGLOBIN,[1],13.5 G/DL
same,LEUKOCYTE COUNT,[1],15.7 x10E3/uL
same,LYMPHOCYTE,[1],93%
same,MEAN CORPUSCULAR HEMOGLOBIN,[1],24.1 pg
same,MEAN CORPUSCULAR HEMOGLOBIN CONCENTRATION,[1],36.97 G/DL
same,MEAN CORPUSCULAR VOLUME,[1],65.23 fL
same,MONOCYTE,[1],1.67%
same,NEUTROPHIL,[1],5%
same,NUCLEATED RED BLOOD CELLS,[1],0 /100WBC
same,PLATELET COUNT,[1],1408.33 x10E3/uL
same,ALANINE AMINOTRANSFERASE,[1],53.67 u/L
same,ALBUMIN,[1],4.27 G/DL
same,ALKALINE PHOSPHATASE,[1],448.33 u/L
same,ASPARTATE AMINOTRANSFERASE,[1],100 u/L
same,BLOOD UREA NITROGEN,[1],15.67 mg/dL
same,CARBON DIOXIDE,[1],25 mmol/L
same,CHLORIDE,[1],104.33 MEQ/L
same,CHOLESTEROL,[1],75.67 mg/dL
same,CREATINE PHOSPHOKINASE,[1],386 u/L
same,CREATININE,[1],0.21 mg/dL
same,GLUCOSE,[1],148.33 mg/dL
same,LACTATE DEHYDROGENASE,[1],566.33 u/L
same,LIPASE,[1],9 u/L
same,PHOSPHORUS,[1],14.37 mg/dL
same,POTASSIUM,[1],6.91 MEQ/L
same,SODIUM,[1],147.5 MEQ/L
same,TOTAL BILIRUBIN,[1],0.2 mg/dL
same,TOTAL PROTEIN,[1],5.87 G/DL
same,URIC ACID,[1],2.33 mg/dL
same,ABSOLUTE BASOPHIL,[2],0 CELLS/uL
same,ABSOLUTE EOSINOPHIL,[2],0 CELLS/uL
same,ABSOLUTE LYMPHOCYTE,[2],14657 CELLS/uL
same,ABSOLUTE MONOCYTE,[2],318 CELLS/uL
same,ABSOLUTE SEGMENTED NEUTROPHIL,[2],925 CELLS/uL
same,BASOPHIL,[2],0%
same,EOSINOPHIL,[2],0%
same,ERYTHROCYTE COUNT,[2],5.84 x10E6/uL
same,HEMATOCRIT,[2],37.7%
same,HEMOGLOBIN,[2],14.03 G/DL
same,LEUKOCYTE COUNT,[2],15.9 x10E3/uL
same,LYMPHOCYTE,[2],92%
same,MEAN CORPUSCULAR HEMOGLOBIN,[2],24.03 pg
same,MEAN CORPUSCULAR HEMOGLOBIN CONCENTRATION,[2],37.23 G/DL
same,MEAN CORPUSCULAR VOLUME,[2],64.47 fL
same,MONOCYTE,[2],2%
same,NEUTROPHIL,[2],6%
same,NUCLEATED RED BLOOD CELLS,[2],0 /100WBC
same,PLATELET COUNT,[2],1395.33 x10E3/uL
same,ALANINE AMINOTRANSFERASE,[2],49.67 u/L
same,ALBUMIN,[2],4.37 G/DL
same,ALKALINE PHOSPHATASE,[2],374.33 u/L
same,ASPARTATE AMINOTRANSFERASE,[2],126 u/L
same,BLOOD UREA NITROGEN,[2],17 mg/dL
same,CARBON DIOXIDE,[2],23 mmol/L
same,CHLORIDE,[2],109 MEQ/L
same,CHOLESTEROL,[2],81.67 mg/dL
same,CREATINE PHOSPHOKINASE,[2],1350 u/L
same,CREATININE,[2],0.18 mg/dL
same,GLUCOSE,[2],184.33 mg/dL
same,LACTATE DEHYDROGENASE,[2],397.67 u/L
same,LIPASE,[2],9.67 u/L
same,PHOSPHORUS,[2],15.07 mg/dL
same,POTASSIUM,[2],6.82 MEQ/L
same,SODIUM,[2],147.1 MEQ/L
same,TOTAL BILIRUBIN,[2],0.17 mg/dL
same,TOTAL PROTEIN,[2],6.2 G/DL
same,URIC ACID,[2],2.3 mg/dL
same,ABSOLUTE BASOPHIL,[3],0 CELLS/uL
same,ABSOLUTE EOSINOPHIL,[3],155 CELLS/uL
same,ABSOLUTE LYMPHOCYTE,[3],10321.67 CELLS/uL
same,ABSOLUTE MONOCYTE,[3],230 CELLS/uL
same,ABSOLUTE SEGMENTED NEUTROPHIL,[3],793.33 CELLS/uL
same,BASOPHIL,[3],0%
same,EOSINOPHIL,[3],1%
same,ERYTHROCYTE COUNT,[3],5.18 x10E6/uL
same,HEMATOCRIT,[3],33.43%
same,HEMOGLOBIN,[3],12.83 G/DL
same,LEUKOCYTE COUNT,[3],11.5 x10E3/uL
same,LYMPHOCYTE,[3],90.33%
same,MEAN CORPUSCULAR HEMOGLOBIN,[3],24.77 pg
same,MEAN CORPUSCULAR HEMOGLOBIN CONCENTRATION,[3],38.4 G/DL
same,MEAN CORPUSCULAR VOLUME,[3],64.63 fL
same,MONOCYTE,[3],2%
same,NEUTROPHIL,[3],6.67%
same,NUCLEATED RED BLOOD CELLS,[3],0 /100WBC
same,PLATELET COUNT,[3],1400 x10E3/uL
same,ALANINE AMINOTRANSFERASE,[3],58 u/L
same,ALBUMIN,[3],4.2 G/DL
same,ALKALINE PHOSPHATASE,[3],390 u/L
same,ASPARTATE AMINOTRANSFERASE,[3],79.67 u/L
same,BLOOD UREA NITROGEN,[3],16.67 mg/dL
same,CARBON DIOXIDE,[3],23.67 mmol/L
same,CHLORIDE,[3],105 MEQ/L
same,CHOLESTEROL,[3],91.67 mg/dL
same,CREATINE PHOSPHOKINASE,[3],323 u/L
same,CREATININE,[3],0.17 mg/dL
same,GLUCOSE,[3],164.67 mg/dL
same,LACTATE DEHYDROGENASE,[3],190.67 u/L
same,LIPASE,[3],9.67 u/L
same,PHOSPHORUS,[3],13.3 mg/dL
same,POTASSIUM,[3],6.52 MEQ/L
same,SODIUM,[3],144.27 MEQ/L
same,TOTAL BILIRUBIN,[3],0.2 mg/dL
same,TOTAL PROTEIN,[3],5.83 G/DL
same,URIC ACID,[3],1.6 mg/dL
same,ABSOLUTE BASOPHIL,[4],0 CELLS/uL
same,ABSOLUTE EOSINOPHIL,[4],174 CELLS/uL
same,ABSOLUTE LYMPHOCYTE,[4],13614.33 CELLS/uL
same,ABSOLUTE MONOCYTE,[4],314 CELLS/uL
same,ABSOLUTE SEGMENTED NEUTROPHIL,[4],1597.67 CELLS/uL
same,BASOPHIL,[4],0%
same,EOSINOPHIL,[4],1%
same,ERYTHROCYTE COUNT,[4],5.71 x10E6/uL
same,HEMATOCRIT,[4],36.2%
same,HEMOGLOBIN,[4],13.7 G/DL
same,LEUKOCYTE COUNT,[4],15.7 x10E3/uL
same,LYMPHOCYTE,[4],86.67%
same,MEAN CORPUSCULAR HEMOGLOBIN,[4],24 pg
same,MEAN CORPUSCULAR HEMOGLOBIN CONCENTRATION,[4],37.87 G/DL
same,MEAN CORPUSCULAR VOLUME,[4],63.33 fL
same,MONOCYTE,[4],2%
same,NEUTROPHIL,[4],10.33%
same,NUCLEATED RED BLOOD CELLS,[4],0 /100WBC
same,PLATELET COUNT,[4],1356 x10E3/uL
same,ALANINE AMINOTRANSFERASE,[4],44.33 u/L
same,ALBUMIN,[4],4.33 G/DL
same,ALKALINE PHOSPHATASE,[4],277 u/L
same,ASPARTATE AMINOTRANSFERASE,[4],78 u/L
same,BLOOD UREA NITROGEN,[4],18.33 mg/dL
same,CARBON DIOXIDE,[4],26.67 mmol/L
same,CHLORIDE,[4],108.33 MEQ/L
same,CHOLESTEROL,[4],75.67 mg/dL
same,CREATINE PHOSPHOKINASE,[4],555.67 u/L
same,CREATININE,[4],0.17 mg/dL
same,GLUCOSE,[4],164.67 mg/dL
same,LACTATE DEHYDROGENASE,[4],144 u/L
same,LIPASE,[4],9 u/L
same,PHOSPHORUS,[4],13.8 mg/dL
same,POTASSIUM,[4],6.54 MEQ/L
same,SODIUM,[4],148.8 MEQ/L
same,TOTAL BILIRUBIN,[4],0.17 mg/dL
same,TOTAL PROTEIN,[4],6.43 G/DL
same,URIC ACID,[4],1.67 mg/dL
